“And” between values parts separate entries of the source, which are not always exact repeats. Identical values can stand only once.
Tests used:
Format in all cases: cell-based
GPR139 (Gq activation) = target: T1, GPR139 (Gq activation) (Homo sapiens, UniProt Q6DWJ6); test: BRET G protein activation (dissociation) assay, Gq, HEK293A; conditions: for G protein activation, Gq: individual replicates
T1 construct: expressed in transfected cells; host or cells: HEK293A (transient, Lipofectamine 2000)
T1 sequence (Q6DWJ6 1-353): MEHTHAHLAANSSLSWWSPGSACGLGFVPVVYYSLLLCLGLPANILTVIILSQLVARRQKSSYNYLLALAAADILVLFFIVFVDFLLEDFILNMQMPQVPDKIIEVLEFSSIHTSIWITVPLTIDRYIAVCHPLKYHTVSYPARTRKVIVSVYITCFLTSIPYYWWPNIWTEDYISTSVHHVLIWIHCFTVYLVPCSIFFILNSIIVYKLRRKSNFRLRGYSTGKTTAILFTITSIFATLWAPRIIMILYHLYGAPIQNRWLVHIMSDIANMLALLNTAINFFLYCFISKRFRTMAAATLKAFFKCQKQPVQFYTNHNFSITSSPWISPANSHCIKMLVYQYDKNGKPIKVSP
Method: (§1) Primary screening and pharmacological characterization of compounds were performed using a CHO-K1 cell line that stably expresses human GPR139 (GPR139-CHOk1). The GPR139-CHOk1 cell line was kindly provided by H. Lundbeck A/S, Denmark[24]. GPR139-CHOk1 cells were grown in Ham’s F-12 Kaighn’s Modification Medium (ThermoFisher #21127030) supplemented with 10% dialyzed fetal bovine serum (US origin, ThermoFisher #26400044), 100 units/mL Penicillin-Streptomycin (ThermoFisher #15140122), and 1 mg/mL Geneticin (ThermoFisher #11811031). […] M1R-CHOk1 cells were purchased from The Missouri S&T cDNA Resource Center (#CEM100TN00). M1R-CHOk1 cells were grown in Ham’s F12 Medium (ThermoFisher #21765029) supplemented with 10% fetal bovine serum (Brazilian origin, ThermoFisher #10270106), 100 units/mL Penicillin-Streptomycin, and 0.25 mg/mL Geneticin. HEK293A cells transiently transfected with GPR139 were used for additional pharmacological assessment of signaling pathways activated by GPR139. HEK239A cells were generously provided by Dr. Asuka Inoue, Tohoku University, Japan. HEK293A cells were grown in Dulbecco’s Modified Eagle Medium (ThermoFisher #31966047) supplemented with 10% dialyzed fetal bovine serum and 100 units/mL Penicillin-Streptomycin. Cell lines were maintained at 37 °C in humidified incubator equilibrated with 5% CO2.
(§2) The G protein dissociation assay developed by the lab of Kirill A. Martemyanov was used to measure the coupling of multiple G proteins by GPR139[57]. The assay was performed as described previously with minor modifications. HEK293A cells were reverse transfected 20–24 h prior to assay. 50,000 cells were plated in each well of white opaque tissue culture treated 96-well plates (PerkinElmer #6005680) previously coated with poly-D-lysine. Transfection solutions were prepared as described, and 10 µL transfection solution was mixed with 100 µL cells in each well. The cells in each well were transfected with 18.9 ng GPR139, 6.3 ng Venus 1-155 Gγ2, 6.3 ng Venus 159-239 Gβ1, 6.3 ng masGRK3ct-NanoLuc and 12.6 ng Gαi2, 12.6 ng Gαi3, 12.6 ng GαoA, 12.6 ng Gαq or 25.2 ng Gα12 using 375 nL Lipofectamine 2000 Transfection Reagent. Transfections with Gαq and Gα12 contained 6.3 ng DNA of the active subunit S1 of pertussis toxin (PTX-S1). Each transfection was normalized to 150 ng total DNA with pcDNA3.1. The BRET biosensors were a kind gift from the Martemyanov lab. On the day of the experiment the cells were washed with HEPES buffer. Test compounds were diluted in HEPES buffer from DMSO stocks (final DMSO concentration of maximally 0.3%). NanoLuc Luciferase substrate NanoGlo—furimazine (Promega #N1120) was diluted 1000-fold (final) in HEPES buffer. NanoGlo and test compounds were added, and measurements were performed after 10 s for Gi3, 15 s for Gi2 and GoA, 20 s for Gq, and 90 s for G12—the timepoint where maximal signal occurred with each G protein, ensuring proper determination of the potency for the G protein coupling. Simultaneous dual emission was measured at 535 nm and 475 nm on LUMIstar Omega Microplate Reader (BMG Labtech) at room temperature. The BRET ratio of 535 nm/475 nm (Venus/NanoLuc), reflecting the dissociation of the G protein heterotrimer, was used to determine the G protein activation. The basal BRET ratio obtained with buffer condition was subtracted from the absolute BRET ratio at a given test compound concentration, and the responses were normalized to the one obtained with 10 µM JNJ-63533054 for the activation of Gi2.
(§3) Pharmacological data and statistical analyses were performed in GraphPad Prism v9–10 (Graphpad Software Inc., San Diego, CA), which are also specifically described in the figure and table legends. […]

GPR139 (G12 activation) = target: T2, GPR139 (G12 activation) (Homo sapiens, UniProt Q6DWJ6); test: BRET G protein activation (dissociation) assay, G12, HEK293A; conditions: for G protein activation, G12: individual replicates
T2 construct: expressed in transfected cells; host or cells: HEK293A (transient, Lipofectamine 2000)
T2 sequence (Q6DWJ6 1-353): T1 sequence (Q6DWJ6 1-353)
Method: as §1, §2, §3

GPR139 (GoA activation) = target: T3, GPR139 (GoA activation) (Homo sapiens, UniProt Q6DWJ6); test: BRET G protein activation (dissociation) assay, GoA, HEK293A; conditions: for G protein activation, GoA: individual replicates
T3 construct: expressed in transfected cells; host or cells: HEK293A (transient, Lipofectamine 2000)
T3 sequence (Q6DWJ6 1-353): T1 sequence (Q6DWJ6 1-353)
Method: as §1, §2, §3

[1] = HEK293-A, normalized to JNJ-63533054 (JNJ(S))

- Emax (GPR139 (Gq activation); [1]): 22 ± 8%
- EC50 (GPR139 (Gq activation); Supplementary Table 6): 10 µM
- Emax (GPR139 (G12 activation); [1]): 48 ± 3%
- EC50 (GPR139 (G12 activation); Supplementary Table 6, read-out: pEC50 G12 (converted)): 3.98 µM
- Emax (GPR139 (GoA activation); [1]): 79 ± 1%
- EC50 (GPR139 (GoA activation); Supplementary Table 6): 5.01 µM
SMILES: C[C@@H](NC(=O)CNC(=O)c1cccc(Cl)c1)c1ccccc1 [JNJ(R), reference compound]
- G protein activation, Gq (GPR139 (Gq activation); log [compound] M -4.5): 17 % of JNJ-63533054 at Gi2 and 24 % of JNJ-63533054 at Gi2 and 7.59 % of JNJ-63533054 at Gi2
- G protein activation, Gq (GPR139 (Gq activation); log [compound] M -5.0): 12 % of JNJ-63533054 at Gi2 and 15 % of JNJ-63533054 at Gi2 and 4 % of JNJ-63533054 at Gi2
- G protein activation, Gq (GPR139 (Gq activation); log [compound] M -5.5): 8 % of JNJ-63533054 at Gi2 and 7 % of JNJ-63533054 at Gi2 and -2.15 % of JNJ-63533054 at Gi2
- G protein activation, Gq (GPR139 (Gq activation); log [compound] M -6.0): 6.62 % of JNJ-63533054 at Gi2 and 3 % of JNJ-63533054 at Gi2 and -1.3 % of JNJ-63533054 at Gi2
- G protein activation, Gq (GPR139 (Gq activation); log [compound] M -6.5): 3.64 % of JNJ-63533054 at Gi2 and 0.578 % of JNJ-63533054 at Gi2 and -0.535 % of JNJ-63533054 at Gi2
- G protein activation, Gq (GPR139 (Gq activation); log [compound] M -7.0): 0.442 % of JNJ-63533054 at Gi2 and -1.25 % of JNJ-63533054 at Gi2 and -2 % of JNJ-63533054 at Gi2
- G protein activation, Gq (GPR139 (Gq activation); log [compound] M -7.5): 0.442 % of JNJ-63533054 at Gi2 and 0.122 % of JNJ-63533054 at Gi2 and 2.16 % of JNJ-63533054 at Gi2
- G protein activation, Gq (GPR139 (Gq activation); log [compound] M -8.0): -2 % of JNJ-63533054 at Gi2 and -0.213 % of JNJ-63533054 at Gi2 and 1.37 % of JNJ-63533054 at Gi2
- G protein activation, G12 (GPR139 (G12 activation); log [compound] M -4.5): 45 % of JNJ-63533054 at Gi2 and 42 % of JNJ-63533054 at Gi2 and 41 % of JNJ-63533054 at Gi2
- G protein activation, G12 (GPR139 (G12 activation); log [compound] M -5.0): 37 % of JNJ-63533054 at Gi2 and 34 % of JNJ-63533054 at Gi2 and 33 % of JNJ-63533054 at Gi2
- G protein activation, G12 (GPR139 (G12 activation); log [compound] M -5.5): 24 % of JNJ-63533054 at Gi2 (2×) and 19 % of JNJ-63533054 at Gi2
- G protein activation, G12 (GPR139 (G12 activation); log [compound] M -6.0): 13 % of JNJ-63533054 at Gi2 and 11 % of JNJ-63533054 at Gi2 and 9 % of JNJ-63533054 at Gi2
- G protein activation, G12 (GPR139 (G12 activation); log [compound] M -6.5): 7 % of JNJ-63533054 at Gi2 and 5 % of JNJ-63533054 at Gi2 and 2.85 % of JNJ-63533054 at Gi2
- G protein activation, G12 (GPR139 (G12 activation); log [compound] M -7.0): 1.33 % of JNJ-63533054 at Gi2 and 4 % of JNJ-63533054 at Gi2 and 0.154 % of JNJ-63533054 at Gi2
- G protein activation, G12 (GPR139 (G12 activation); log [compound] M -7.5): 0.474 % of JNJ-63533054 at Gi2 and 6 % of JNJ-63533054 at Gi2 and 1.7 % of JNJ-63533054 at Gi2
- G protein activation, G12 (GPR139 (G12 activation); log [compound] M -8.0): -0.892 % of JNJ-63533054 at Gi2 and 6 % of JNJ-63533054 at Gi2 and 2.38 % of JNJ-63533054 at Gi2
- G protein activation, GoA (GPR139 (GoA activation); log [compound] M -4.5): 73 % of JNJ-63533054 at Gi2 and 70 % of JNJ-63533054 at Gi2 and 62 % of JNJ-63533054 at Gi2
- G protein activation, GoA (GPR139 (GoA activation); log [compound] M -5.0): 58 % of JNJ-63533054 at Gi2 and 53 % of JNJ-63533054 at Gi2 and 47 % of JNJ-63533054 at Gi2
- G protein activation, GoA (GPR139 (GoA activation); log [compound] M -5.5): 37 % of JNJ-63533054 at Gi2 and 33 % of JNJ-63533054 at Gi2 and 28 % of JNJ-63533054 at Gi2
- G protein activation, GoA (GPR139 (GoA activation); log [compound] M -6.0): 16 % of JNJ-63533054 at Gi2 and 13 % of JNJ-63533054 at Gi2 and 14 % of JNJ-63533054 at Gi2
- G protein activation, GoA (GPR139 (GoA activation); log [compound] M -6.5): 5.7 % of JNJ-63533054 at Gi2 and 1.59 % of JNJ-63533054 at Gi2 and 5.63 % of JNJ-63533054 at Gi2
- G protein activation, GoA (GPR139 (GoA activation); log [compound] M -7.0): -0.263 % of JNJ-63533054 at Gi2 and -1.74 % of JNJ-63533054 at Gi2 and 2.49 % of JNJ-63533054 at Gi2
- G protein activation, GoA (GPR139 (GoA activation); log [compound] M -7.5): -1.44 % of JNJ-63533054 at Gi2 and 0.514 % of JNJ-63533054 at Gi2 and 0.72 % of JNJ-63533054 at Gi2
- G protein activation, GoA (GPR139 (GoA activation); log [compound] M -8.0): -1.46 % of JNJ-63533054 at Gi2 and -2.26 % of JNJ-63533054 at Gi2 and 3.8 % of JNJ-63533054 at Gi2

From PMC12775434, “Ultra-large virtual screening unveils potent agonists of the neuromodulatory orphan receptor GPR139” (Nature Communications, 2025)
